The compounds below were run against T1, Human IL-17A (Homo sapiens, UniProt Q16552) (assay: IL-17A enzyme-linked immunosorbent assay (competitive ELISA, IL-17A/IL-17Ra receptor-ligand binding)). Settings: human IL-17A coated plate, human IL-17Ra, read-out: IC50, inhibitory activity of compounds on human IL-17A.
T1 sequence (Q16552 20-155 limits assumed): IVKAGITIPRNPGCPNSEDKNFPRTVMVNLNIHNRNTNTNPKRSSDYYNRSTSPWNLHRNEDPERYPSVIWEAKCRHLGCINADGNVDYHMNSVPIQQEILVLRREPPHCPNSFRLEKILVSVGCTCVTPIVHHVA
Set-up: purchased Sino Biological Inc. 12047-H07B
Experimental: Experimental Example 1 IL-17A Enzyme-Linked Immunosorbent Assay (ELISA)
The inhibitory effects of human IL-17A inhibitors on receptor-ligand binding were quantitatively determined by a competitive enzyme-linked immunosorbent assay (ELISA). The ELISA was performed through the following steps.
Human IL-17A (Sino Biological Inc., Cat #12047-H07B) was diluted with coating buffer (50 mM phosphate-buffered saline (PBS), pH 7.4) to give an IL-17A concentration of 0.2 μg/ml. 100 μL of the resulting solution was added to each well of a 96-well plate, and the plate was incubated at 37° C. for 30 min. In a blank group, 100 100 μL of the coating buffer was added instead of the IL-17A solution.
The plate was washed four times with 10 mM phosphate-buffered saline containing 0.05% Tween-20 (PBST, pH 7.4). 200 μL of PBST was used per well for each wash. After the final wash, the plate was tapped dry on absorbent paper.
Fresh 5% (w/v) skim milk solution was prepared before the experiment. For example, 5 g of skim milk powder (Bio-Rad, 170-6404) was completely dissolved in 100 mL of 10 mM PBST. 200 μL of the 5% (w/v) skim milk solution was added to each well, and the plate was incubated on a shaker at 25° C. for 30 min.
(S4) Preparation of 100× to-be-Tested Compound Solutions
During step (S3), the to-be-tested compound solutions were prepared, respectively. Each powdered compound was dissolved in dimethyl sulfoxide (DMSO) to reach a storage concentration of 10 mM. The to-be-tested compound solutions were then serially diluted four-fold with DMSO to obtain nine storage concentrations ranging from […].
(S6) Pre-incubation of IL-17A with to-be-tested compound solutions
89 μL of PBST and 1 μL of each of the to-be-tested compound solutions were added to each well and mixed. The plate was pre-incubated at 25° C. for 10 min. In the blank group and the control group, 1 μL of DMSO was added instead of the to-be-tested compound solutions.
(S7) Incubation with Human Interleukin-17 Receptor a (IL-17Ra)
10 μL of 16 nM human IL-17Ra (Sino Biological Inc., Cat #10895-H03H) was added, followed by incubation on a shaker at 25° C. for 30 min. The receptor solution was prepared in 10 mM PBST.
(S9) Incubation with Horseradish Peroxidase-Conjugated Antibody
100 μL of mouse anti-Fc tag horseradish peroxidase (HRP)-conjugated antibody (Sino Biological Inc., Cat #10702-MM01T-H) was added to each well. The plate was incubated on a shaker at 25° C. for 30 min. The antibody was diluted with 5% (w/v) skim milk solution at 1:5,000 (v/v).
100 μL of 3,3′,5,5′-tetramethylbenzidine (TMB) substrate solution (BD, Cat #555214) was added to each well. Substrate A and substrate B were freshly mixed at a volume ratio of 1:1 before use. The plate was incubated in the dark at 25° C. for 5-15 min.
(S12) Termination and Detection
The color reaction was terminated by addition of 2.5 M hydrochloric acid (HCl). Absorbance was measured at 450 nm using a BMG PHERStar microplate reader.
(S13) Calculation of Half-Maximal Inhibitory Concentration (IC50)
The relative percent residual activity at each compound concentration was calculated according to Equation 1. The IC50 value of each test compound was then calculated in GraphPad 6 using the equation for log(inhibitor) versus normalized response with variable slope, as shown in Equation 2.
relative percent residual activity (%)=[(absorbance of sample−absorbance of blank group)/(absorbance of control group−absorbance of blank group)]%. Equation 1: […]
The compounds prepared in the above examples were tested for IL-17A inhibitory activity according to the above method.

Row | SMILES | IC50 [nM]
1 | Cc1[nH]nc2c1-c1cc(F)c(NC(=O)[C@@H](NC(=O)c3ccnn3C3CC3)C(C3CC3)C3CC3)cc1CN(C)C(=O)C2 [compound 135] | ≤ 50
2 | CCn1nccc1C(=O)NC(C(=O)Nc1cc2c(cc1F)-c1c(n[nH]c1C)CCOC2)C1CCC(F)(F)CC1 (single isomer, unassigned) [compound 37a] | ≤ 50
3 | COC(=O)N[C@H](C(=O)Nc1cc2c(cc1F)-c1c(n[nH]c1C)CCOC2)C(C1CC1)C1CC1 [compound 121] | 50 to 150
4 | Cc1[nH]nc2c1-c1cc(F)c(NC(=O)[C@@H](NC(=O)c3ccnn3C3CCOCC3)C(C3CC3)C3CC3)cc1COCC2 [compound 74] | 50 to 150
5 | Cc1[nH]nc2c1-c1cc(F)c(NC(=O)[C@@H](NC(=O)c3ccnn3CCCN(C)C)C(C3CC3)C3CC3)cc1COCC2 [compound 85] | 50 to 150
6 | C=C(F)C(=O)N[C@H](C(=O)Nc1cc2c(cn1)-c1c(n[nH]c1C)CC(=O)N(C(C)C(F)(F)F)C2)C(C1CC1)C1CC1 (mixture of isomers) [compound 257] | ≤ 50
7 | Cc1[nH]nc2c1-c1cc(F)c(NC(=O)[C@@H](NC(=O)c3ccnn3C3CSC3)C(C3CC3)C3CC3)cc1COCC2 [compound 112] | ≤ 50
8 | Cc1[nH]nc2c1-c1cnc(NC(=O)[C@@H](NC(=O)c3ccnn3C(C)C)C(C3CC3)C3CC3)cc1CN(C(C)C(F)(F)F)C(=O)C2 (mixture of isomers) [compound 204] | ≤ 50
9 | Cc1[nH]nc2c1-c1ccc(NC(=O)[C@@H](NC(=O)c3ccnn3[C@@H](C)CO)C(C3CC3)C3CC3)cc1COCC2 [compound 51] | ≤ 50
10 | C=C(F)C(=O)N[C@H](C(=O)Nc1cc2c(cn1)-c1c(n[nH]c1C)CCN(C1CC1)C2)C(C1CC1)C1CC1 [compound 224] | ≤ 50
11 | CCc1nonc1C(=O)N[C@H](C(=O)Nc1cc2c(cc1F)-c1c(n[nH]c1C)CCOC2)C(C1CC1)C1CC1 [compound 21] | ≤ 50
12 | CCn1nccc1C(=O)N[C@H](C(=O)Nc1cc2c(cc1F)-c1c(n[nH]c1C)CCN(C)C2)C(C1CC1)C1CC1 [compound 155] | 50 to 150
13 | Cc1[nH]nc2c1-c1cc(F)c(NC(=O)[C@@H](NC(=O)c3ccnn3CCCF)C(C3CC3)C3CC3)cc1CN(C(C)C(F)(F)F)C(=O)C2 (mixture of isomers) [compound 249] | ≤ 50
14 | CCn1nccc1C(=O)N[C@H](C(=O)Nc1cc2c(cc1Cl)-c1c[nH]nc1CCOC2)C(C1CC1)C1CC1 [compound 30] | 50 to 150
15 | CCn1nccc1C(=O)N[C@H](C(=O)Nc1ccc2c(c1)CCOCc1n[nH]c(C)c1-2)C(C1CC1)C1CC1 [compound 14] | 50 to 150
16 | Cc1[nH]nc2c1-c1cc(F)c(NC(=O)[C@@H](NC(=O)c3ccnn3C(C)C)C(C3CC3)C3CC3)cc1CN(C(C)(C)C(F)(F)F)CC2 [compound 211] | ≤ 50
17 | CC(C)=C(F)C(=O)N[C@H](C(=O)Nc1cc2c(cn1)-c1c(n[nH]c1C)CC(=O)N(C(C)C(F)(F)F)C2)C(C1CC1)C1CC1 (mixture of isomers) [compound 256] | ≤ 50
18 | COCCN1Cc2cc(NC(=O)[C@@H](NC(=O)c3ccnn3[C@@H](C)CO)C(C3CC3)C3CC3)c(F)cc2-c2c(n[nH]c2C)CC1=O [compound 140] | ≤ 50
19 | Cc1[nH]nc2c1-c1cc(F)c(NC(=O)[C@@H](NC(=O)c3ccnn3C(C)C)C(C3CC3)C3CC3)cc1CN(C(C)(C)C(F)(F)F)C(=O)C2 [compound 207] | ≤ 50
20 | Cc1[nH]nc2c1-c1cc(F)c(NC(=O)[C@@H](NC(=O)c3ccnn3[C@H]3CCOC3)C(C3CC3)C3CC3)cc1COCC2 [compound 73] | 50 to 150
21 | Cc1[nH]nc2c1-c1cnc(NC(=O)[C@@H](NC(=O)c3ccnn3C(C)C)C(C3CC3)C3CC3)cc1CN(C1CC(F)(F)C1)CC2 [compound 203] | ≤ 50

Row | SMILES | IC50 [nM]
22 | CC(C)=C(F)C(=O)N[C@H](C(=O)Nc1cc2c(cn1)-c1c(n[nH]c1C)CCN(C1CC1)C2)C(C1CC1)C1CC1 [compound 223] | ≤ 50
23 | Cc1nonc1C(=O)N[C@H](C(=O)Nc1cc2c(cc1F)-c1c(n[nH]c1C)CCOC2)C(C1CC1)C1CC1 [compound 20] | ≤ 50
24 | Cc1[nH]nc2c1-c1cc(F)c(NC(=O)[C@@H](NC(=O)c3ccnn3[C@@H](C)CO)[C@H]3CC[C@H](C)CC3)cc1COCC2 [compound 47] | ≤ 50
25 | Cc1[nH]nc2c1-c1cc(F)c(NC(=O)[C@@H](NC(=O)c3ccnn3CCOC(F)F)C(C3CC3)C3CC3)cc1COCC2 [compound 107] | ≤ 50
26 | Cc1[nH]nc2c1-c1cnc(NC(=O)[C@@H](NC(=O)c3ccnn3C(C)C)C(C3CC3)C3CC3)cc1CN(C(C)C(F)(F)F)CC2 (mixture of isomers) [compound 205] | ≤ 50
27 | Cc1[nH]nc2c1-c1cc(F)c(NC(=O)[C@@H](NC(=O)/C(F)=C\C(C)C)C(C3CC3)C3CC3)cc1CN(C(C)C(F)(F)F)C(=O)C2 (mixture of isomers) [compound 250] | ≤ 50
28 | Cc1[nH]nc2c1-c1cc(F)c(NC(=O)[C@@H](NC(=O)c3ccnn3CCCN3CCN(C)CC3)C(C3CC3)C3CC3)cc1COCC2 [compound 93] | 50 to 150
29 | Cc1[nH]nc2c1-c1cc(F)c(NC(=O)[C@@H](NC(=O)c3ccnn3CC3(C(F)(F)F)CC3)C(C3CC3)C3CC3)cc1COCC2 [compound 91] | 50 to 150
30 | Cc1[nH]nc2c1-c1cnc(NC(=O)[C@@H](NC(=O)/C(F)=C\C3CC3)C(C3CC3)C3CC3)cc1CN(C(C)C(F)(F)F)C(=O)C2 (mixture of isomers) [compound 255] | ≤ 50
31 | Cc1[nH]nc2c1-c1cc(F)c(NC(=O)[C@@H](NC(=O)c3ccnn3C(C)C)C(C3CC3)C3CC3)cc1CN(CC#N)CC2 [compound 179] | ≤ 50
32 | Cc1[nH]nc2c1-c1cnc(NC(=O)[C@@H](NC(=O)c3ccnn3C(C)C)C(C3CC3)C3CC3)cc1CN(C(C)(C)C(F)(F)F)C(=O)C2 [compound 206] | ≤ 50
33 | Cc1[nH]nc2c1-c1cc(F)c(NC(=O)[C@@H](NC(=O)c3ccnn3C(C)C)C(C3CC3)C3CC3)cc1CN(C1(C(F)(F)F)CC1)C(=O)C2 [compound 209] | ≤ 50
34 | Cc1[nH]nc2c1-c1cc(F)c(NC(=O)[C@@H](NC(=O)c3cccc(-c4ccn[nH]4)c3)C(C3CC3)C3CC3)cc1COCC2 [compound 228] | ≤ 50
35 | Cc1[nH]nc2c1-c1cc(F)c(NC(=O)[C@@H](NC(=O)c3ccnn3C(C)C[S+](C)[O-])C(C3CC3)C3CC3)cc1COCC2 (single isomer, unassigned) [compound 43b] | 50 to 150
36 | Cc1[nH]nc2c1-c1cnc(NC(=O)[C@@H](NC(=O)c3ccnn3C(C)C)C(C3CC3)C3CC3)c(F)c1COCC2 [compound 128] | ≤ 50
37 | Cc1[nH]nc2c1-c1cc(F)c(NC(=O)[C@@H](NC(=O)c3ccnn3C(C)C)C(C3CC3)C3CC3)cc1CN(C1(C(F)(F)F)CC1)CC2 [compound 213] | ≤ 50
38 | Cc1nonc1C(=O)N[C@H](C(=O)Nc1ccc2c(c1)COCCc1n[nH]c(C)c1-2)C(C1CC1)C1CC1 [compound 4] | ≤ 50
39 | Cc1[nH]nc2c1-c1cc(F)c(NC(=O)[C@@H](NC(=O)c3ccnn3C3CCC3)C(C3CC3)C3CC3)cc1COCC2 [compound 72] | ≤ 50
40 | COCCN1Cc2cc(NC(=O)[C@@H](NC(=O)c3nonc3C)C(C3CC3)C3CC3)c(F)cc2-c2c(n[nH]c2C)CC1=O [compound 141] | ≤ 50
41 | Cc1[nH]nc2c1-c1cc(F)c(NC(=O)[C@@H](NC(=O)C3(F)CC3)C(C3CC3)C3CC3)cc1COCC2 [compound 122] | 50 to 150
42 | Cc1[nH]nc2c1-c1cnc(NC(=O)[C@@H](NC(=O)/C(F)=C\C(C)C)C(C3CC3)C3CC3)cc1CN(C(C)C(F)(F)F)C(=O)C2 (mixture of isomers) [compound 254] | ≤ 50

Source: US20260258050A1, “IMMUNOMODULATOR” (HITGEN INC., priority 2023, published 2026)
